The nature of assay [1]: Inhibition of ADP induced platelet aggregation in human platelet-rich plasma (PRP).
A short description of assay [2]: Inhibition of ADP induced platelet aggregation in human platelet-rich plasma (PRP).

Structures are written as SMILES.

In assay [1], `COc1ccc(C(CC(=O)O)N2CCc3cc(OCc4ccc(C(=N)N)cc4)ccc3C2=O)cc1` (stereo not drawn) [3-[6-(4-Carbamimidoyl-benzyloxy)-1-oxo-3,4-dihydro-1H-isoquinolin-2-yl]-3-(4-methoxy-phenyl)-propionic acid] returned an IC50 of 260 nM. In other words, the sub-micromolar range.

Take `N=C(N)c1ccc(COc2ccc3c(c2)CCN(C(CC(=O)O)c2ccccc2)C3=O)cc1` (stereo not drawn) [3-[6-(4-Carbamimidoyl-benzyloxy)-1-oxo-3,4-dihydro-1H-isoquinolin-2-yl]-3-phenyl-propionic acid]: in assay [1], the IC50 came to 200 nM.

For `COCCOCC(CC(=O)O)N1CCc2cc(OCc3ccc(C(=N)N)cc3)ccc2C1=O` (stereo not drawn) [3-[6-(4-Carbamimidoyl-benzyloxy)-1-oxo-3,4-dihydro-1H-isoquinolin-2-yl]-4-(2-methoxy-ethoxy)-butyric acid], the IC50 in assay [1] is 680 nM. Against the preceding molecule, the IC50 is about 3.4-fold higher.

Consider `CCOCCCC(CC(=O)O)N1CCc2cc(OCc3ccc(C(=N)N)cc3)ccc2C1=O` (stereo not drawn) [3-[6-(4-Carbamimidoyl-benzyloxy)-1-oxo-3,4-dihydro-1H-isoquinolin-2-yl]-6-ethoxy-hexanoic acid], for which half-maximal inhibition in assay [1] (IC50) required 470 nM. This IC50 and that of the molecule before are within 1.5-fold of each other.

Turning to `COCCCC(CC(=O)O)N1CCc2cc(OCc3ccc(C(=N)N)cc3)ccc2C1=O` (stereo not drawn) [3-[6-(4-Carbamimidoyl-benzyloxy)-1-oxo-3,4-dihydro-1H-isoquinolin-2-yl]-6-methoxy-hexanoic acid], the IC50 in assay [1] worked out at 600 nM.

For `CCCCC(CC(=O)O)N1CCc2cc(OCc3ccc(C(=N)N)cc3)ccc2C1=O` (stereo not drawn) [3-[6-(4-Carbamimidoyl-benzyloxy)-1-oxo-3,4-dihydro-1H-isoquinolin-2-yl]-heptanoic acid], the IC50 in assay [1] was 600 nM.

For the molecule `CCCC(CC(=O)O)N1CCc2cc(OCc3ccc(C(=N)N)cc3)ccc2C1=O` (stereo not drawn) [3-[6-(4-Carbamimidoyl-benzyloxy)-1-oxo-3,4-dihydro-1H-isoquinolin-2-yl]-hexanoic acid], the IC50 in assay [1] came out at 230 nM.

`CCCCCCC(CC(=O)O)N1CCc2cc(OCc3ccc(C(=N)N)cc3)ccc2C1=O` (stereo not drawn) [3-[6-(4-Carbamimidoyl-benzyloxy)-1-oxo-3,4-dihydro-1H-isoquinolin-2-yl]-nonanoic acid] showed an IC50 in assay [1] of 3000 nM.

As to `CCCCCC(CC(=O)O)N1CCc2cc(OCc3ccc(C(=N)N)cc3)ccc2C1=O` (stereo not drawn) [3-[6-(4-Carbamimidoyl-benzyloxy)-1-oxo-3,4-dihydro-1H-isoquinolin-2-yl]-octanoic acid], the midpoint of inhibition in assay [1], the IC50, lay at 570 nM.

In turn, `CCC(CC(=O)O)N1CCc2cc(OCc3ccc(C(=N)N)cc3)ccc2C1=O` (stereo not drawn) [3-[6-(4-Carbamimidoyl-benzyloxy)-1-oxo-3,4-dihydro-1H-isoquinolin-2-yl]-pentanoic acid] registered an IC50 in assay [1] of 300 nM.

Take `N=C(N)c1ccc(COc2ccc3c(c2)CCN(CCC(=O)O)C3=O)cc1` [3-[6-(4-Carbamimidoyl-benzyloxy)-1-oxo-3,4-dihydro-1H-isoquinolin-2-yl]-propionic acid]: it took 420 nM to reach half-maximal inhibition in assay [2] (IC50).

In the case of `COC(=O)c1ccc(C(CC(=O)O)N2CCc3cc(OCc4ccc(C(=N)N)cc4)ccc3C2=O)cc1` (stereo not drawn) [4-{1-[6-(4-Carbamimidoyl-benzyloxy)-1-oxo-3,4-dihydro-1H-isoquinolin-2-yl]-2-carboxy-ethyl}-benzoic acid methyl ester], the half-maximal inhibitory concentration (IC50) in assay [1] was found to be 220 nM.

Take `N=C(N)c1ccc(COc2ccc3c(c2)CCN(CC(=O)O)C3=O)cc1` [[6-(4-Carbamimidoyl-benzyloxy)-1-oxo-3,4-dihydro-1H-isoquinolin-2-yl]-acetic acid]: the IC50 in assay [1] turned out to be 30000 nM.

Source of the values: BindingDB's records for doi:10.1016/S0960-894X(97)10014-2 (1997).
